According to patent US20260355199A1, “COMPOSITIONS AND METHODS FOR TREATING OR PREVENTING NONALCOHOLIC STEATOHEPATITIS (NASH), ANOREXIA, DEPRESSION, ENDOMETRIOSIS, AND OTHER DISEASES OR DISORDERS” (priority 2022, published 2026):
Entries after “also recorded” stand apart in the source; their conditions may differ.

Assays:
[1] = test system: TET2; assay: TET2 expression in GT1-7 cells; format: cell-based, mouse; conditions: 10 μM, 6 h
Experimental: For Bobcat339 treatment (FIG. 15A and FIG. 15B), GT1-7 cells grown in 24-well plates at 2×10^5 cells/well were incubated with vehicle or Bobcat339 at a final concentration of 10 μM for 6 h, followed by RNA and protein extractions. For TET3 protein stability assay (FIG. 15B), GT1-7 cells in 24-well plates at 2×10^5 cells/well were incubated with vehicle or Bobcat339 at a final concentration of 10 μM for 3 hours, followed by addition of cycloheximide (CHX, Cell Signaling, 2112) at a final concentration of […] in the presence of 10 μM of Bobcat339. Proteins were harvested at 0, 1, 2, and 3 hours after addition of CHX. For TET3 expression restoration experiments (FIG. 15C and FIG. 15D), GT1-7 or SH-SY5Y cells seeded in 24-well plates at 2×10^5 cells/well were infected with Ad-GFP or Ad-TET3 at 4000 gc/cell. Following 16 h of infection, vehicle or Bobcat339 were added at a final concentration of 10 μM. Protein and RNA were isolated 48 h later and analyzed.
GT1-7 and SH-SY5Y cells in 24-well plates were collected by manual scraping in 2×SDS-sample buffer containing 1× Phosphatase inhibitor cocktail (Thermo, 78427) and 1× Protease inhibitor cocktail (Thermo, 78438), followed by heating at 100 °C for 5 min with occasional vortexing. […]

[2] = test system: TET3; assay: TET3 protein in the ARC of mice (immunofluorescence); format: in vivo, mouse
Experimental: (§1) To test whether Bobcat339 affects TET3 protein expression in AgRP neurons, Agrp-IRES-Cre::LSL-Cas9-GFP mice with GFP expression specifically in AgRP neurons were intraperitoneally injected with vehicle or Bobcat339 at 2.5 mg/kg, followed by isolation of ARCs under fed conditions (9:00-11:00) two days later. This dose was chosen based on the dose response studies. TET2 expression was widespread but was negligible in AgRP neurons.
(§2) Bobcat339 powder (Sigma-Aldrich, SML2611) was freshly dissolved in DMSO (vehicle) at a concentration of 50 mg/mL and filtered through a 0.22 micron. It was further diluted with 1×PBS to a final concentration of 0.5 mg/mL before injections. Mice were injected intraperitoneally with Bobcat339 at 1 mg/kg, 2.5 mg/kg, or 4 mg/kg.
The immunofluorescence for brain slices was conducted using previous methods (18). In brief, postfixed sections were cut into 40-μm-thick sections, followed by 5 times washing. Then the sections were incubated in blocking solution for 20 minutes and incubated with anti-TET3 (dilution 1:2000; Millipore Sigma, ABE290), anti-TET2 (dilution 1:500; Proteintech, 21207-1-AP), anti-AGRP (dilution 1:400; H-003-57, Phoenix Pharmaceuticals), anti-NPY (dilution 1:800, Cell Signaling Technology, 11976S), anti-VGAT (dilution 1:200; Abcam, Ab23592), or anti-FOS (dilution 1:1000; Biosensis, R-1751-050) overnight at 4 °C. Negative controls were performed by omitting the respective primary antibodies. The next day, sections were washed 5 times and incubated in 0.4% Triton x-100 PBS with the secondary antibody donkey anti-Rabbit IgG Fluor 594 (dilution 1:500; A-21207, Invitrogen) for 2 h at RT. The sections were coverslipped and scoped using a Keyence BZ-X700 fluorescence microscope. The fluorescence signals from GFP in AgRP neurons were detected without immunostaining.

[3] = test system: Tet3 mRNA; assay: Tet3 mRNA in the ARC of mice; format: in vivo, mouse; conditions: 2.5 mg/kg i.p., two days
Experimental: as §1, §2
Total RNAs were extracted from neuronal cells or homogenized hypothalamic arcuate nucleus tissue samples using PureLink RNA Mini Kit (Ambion, 12183025). cDNA was synthesized using PrimeScript RT Reagent Kit in a 20 μl reaction containing 0.5-1 μg of total RNA. Real-time quantitative PCR was performed in a 15 μl reaction containing 0.5-1 μl of cDNA using SsoAdvanced Universal SYBR Green Supermix in a Bio-Rad iCycler. Specificity was verified by melting curve analysis. The Ct values of each sample were used in the post-PCR data analysis. Gene expression levels were normalized against RPLP0.

[4] = test system: TET3; assay: TET3 protein in human MDMs; format: cell-based; conditions: 24 h
Experimental: For siRNA transfection in a 24-well plate scale of MDMs, NT siRNA or TET3 siRNA (4392420/s47239, Ambion) was mixed with 25 μL of OPTI-MEM by gentle pipetting. In parallel, 1.5 μL of Lipofectamine RNAiMAX was mixed with 25 μL of OPTI-MEM by gentle pipetting. Following 5 min of incubation at RT, the resulting 50 μl of transfection solution was added to each well of cells containing 450 μL of growth media.
Bobcat339 Treatment of Cultured Cells Bobcat339 powder (Sigma-Aldrich, SML2611) was freshly dissolved in DMSO at a concentration of 5 mM and filtered through a 0.22 micron. […]
For cultured MDMs, cells were primed with CM-Endo or TGF-β1 (PeproTech, 100-21) for 36-48 h (to increase TET3 expression) before Bobcat339 treatment.
Cells were homogenized in situ using a pipette tip in 2×SDS-sample buffer with 10% β-mercaptoethanol at RT followed by heating at 100 °C for 5 min with occasional vortexing. The samples were loaded onto a 4-15% gradient SDS gel (Bio-rad, 456-8086) (10 μL/well) and transferred to nitrocellulose membranes, followed by Western blot analysis. […]

SMILES: Nc1nc(=O)n(-c2cccc(-c3ccccc3)c2)cc1Cl [Bobcat339, 4-Amino-1-[1,1′-biphenyl]-3-yl-5-chloro-2(1H)-pyrimidinone]
- TET2 expression [1]: did not affect TET2 expression
- TET3-positive AgRP neurons ([2]; 2.5 mg/kg i.p., two days): a clear decrease in the number of TET3-positive AgRP neurons; also recorded: decreased TET3 protein in AgRP neurons; also recorded: inhibited TET3 expression in AgRP neurons
- TET3 protein in non-AgRP cells ([2]; decrease limited to the tip regions of the ARC even at 4 mg/kg): decreased TET3 protein in non-AgRP cells
- onset of TET3 decrease in AgRP neurons and neuron activation ([2]; following exposure to Bobcat339): as early as three days
- Tet3 mRNA in the ARC [3]: did not alter the mRNA abundance of Tet3; also recorded: no significant change
- TET3 protein level ([4]; 10 μM): a decrease in TET3 expression; also recorded: decreased the level of TET3 protein
- steady-state level of TET3 protein ([4]; 10 mM (so in the source)): a decrease in the steady-state level of TET3 protein
